# System: subjects with chronic ITP
# Experiment: Combined 28-day and 6-month rollover studies of E5501: safety (TEAEs, serious TEAEs, thromboembolic events, neoplasms, liver toxicity, discontinuations)
# Assay type: in vivo, human
# Source text: Primary Endpoint: The primary endpoint was to assess the safety and tolerability to E5501, including AEs and clinical laboratory parameters, over the 6 additional months of treatment.
# In this way, safety data reflect each subject's complete duration of exposure to E5501 starting with lead-in the previous study and continuing into the current study.
# Following Protocol Amendment 4, the current study contained a flexible dose regimen; therefore, this study was considered to have an open-label, uncontrolled, single-arm design. […] This was the method used to assess safety. • Grouping method B was based on both treatment received and day 28 platelet response to study drug in Study the previous study. This was the method used for the analysis of efficacy for the FAS and the SE population.
# Overall Adverse Events. […] The primary focus is on summary statistics for the entire safety population and provides an overall safety profile for E5501. The summary statistics for each group, e.g., lower ⅓, middle ⅓ and upper ⅓ average daily dose levels, is secondary and provides further safety information across the 3 dose levels.
# [1] = Lower ⅓ dose (2.5-<8.85 mg), N=22
smiles,measurement,setting,value
"O=C(Nc1nc(-c2cc(Cl)cs2)c(N2CCN(C3CCCCC3)CC2)s1)c1cnc(N2CCC(C(=O)O)CC2)c(Cl)c1 [E5501, 1-(3-chloro-5-{[4-(4-chlorothiophen-2-yl)-5-(4-cyclohexylpiperazin-1-yl)thiazol-2-yl]carbamoyl}pyridine-2-yl)piperidine-4-carboxylic acid]",tolerability and safety profile,6-month treatment period,well tolerated and demonstrated a favorable safety profile
same,"Any Serious TEAE, n (%) of subjects","E5501 Total, N=64",5 (7.8) n (%)
same,"Serious TEAE Cerebrovascular accident, n (%) of subjects","E5501 Total, N=64",1 (1.6) n (%)
same,"Serious TEAE Chest pain, n (%) of subjects","E5501 Total, N=64",1 (1.6) n (%)
same,"Serious TEAE Diarrhoea, n (%) of subjects","E5501 Total, N=64",1 (1.6) n (%)
same,"Serious TEAE Haemorrhage intracranial, n (%) of subjects","E5501 Total, N=64",1 (1.6) n (%)
same,"Serious TEAE Lethargy, n (%) of subjects","E5501 Total, N=64",1 (1.6) n (%)
same,"Serious TEAE Mitral valve incompetence, n (%) of subjects","E5501 Total, N=64",1 (1.6) n (%)
same,"Serious TEAE Myocardial infarction, n (%) of subjects","E5501 Total, N=64",1 (1.6) n (%)
same,"Serious TEAE Nausea, n (%) of subjects","E5501 Total, N=64",1 (1.6) n (%)
same,"Serious TEAE Pelvic venous thrombosis, n (%) of subjects","E5501 Total, N=64",1 (1.6) n (%)
same,"Serious TEAE Platelet count decreased, n (%) of subjects","E5501 Total, N=64",1 (1.6) n (%)
same,"Serious TEAE Pneumonia, n (%) of subjects","E5501 Total, N=64",1 (1.6) n (%)
same,"Serious TEAE Pyrexia, n (%) of subjects","E5501 Total, N=64",1 (1.6) n (%)
same,"Serious TEAE Thrombocytopenia, n (%) of subjects","E5501 Total, N=64",1 (1.6) n (%)
same,"Serious TEAE Transient ischaemic attack, n (%) of subjects","E5501 Total, N=64",1 (1.6) n (%)
same,"Serious TEAE Vomiting, n (%) of subjects","E5501 Total, N=64",2 (3.1) n (%)
same,"Serious TEAE, SOC Blood and lymphatic system disorders, n (%) of subjects","E5501 Total, N=64",1 (1.6) n (%)
same,"Serious TEAE, SOC Cardiac disorders, n (%) of subjects","E5501 Total, N=64",2 (3.1) n (%)
same,"Serious TEAE, SOC Gastrointestinal disorders, n (%) of subjects","E5501 Total, N=64",2 (3.1) n (%)
same,"Serious TEAE, SOC General disorders and administration site conditions, n (%) of subjects","E5501 Total, N=64",1 (1.6) n (%)
same,"Serious TEAE, SOC Infections and infestations, n (%) of subjects","E5501 Total, N=64",1 (1.6) n (%)
same,"Serious TEAE, SOC Investigations, n (%) of subjects","E5501 Total, N=64",1 (1.6) n (%)
same,"Serious TEAE, SOC Nervous system disorders, n (%) of subjects","E5501 Total, N=64",3 (4.7) n (%)
same,"Serious TEAE, SOC Vascular disorders, n (%) of subjects","E5501 Total, N=64",1 (1.6) n (%)
same,"Discontinued 501-CL-004, PC increase to ≧500,000/mm^3","Full Analysis Set, Responders in previous study",0 n
same,"Abdominal pain upper, n of subjects",[1],0
same,"Any Serious TEAE, n (%) of subjects",[1],1 (4.5) n (%)
same,"Any TEAE, % of subjects",[1],(90.9) %
same,"Any TEAE, n of subjects",[1],20
same,"Arthralgia, % of subjects",[1],(4.5) %
same,"Arthralgia, n of subjects",[1],1
same,"Asthenia, % of subjects",[1],(13.6) %
same,"Asthenia, n of subjects",[1],3
same,"Back pain, % of subjects",[1],(4.5) %
same,"Back pain, n of subjects",[1],1
same,"Constipation, n of subjects",[1],0
same,"Contusion, % of subjects",[1],(13.6) %
same,"Contusion, n of subjects",[1],3
same,"Cough, % of subjects",[1],(4.5) %
same,"Cough, n of subjects",[1],1
same,"Deaths, n of subjects",[1],0
same,"Diarrhoea, % of subjects",[1],(13.6) %
same,"Diarrhoea, n of subjects",[1],3
same,"Dizziness, % of subjects",[1],(4.5) %
same,"Dizziness, n of subjects",[1],1
same,"Dose interruption due to TEAE, % of subjects",[1],(13.6) %
same,"Dose interruption due to TEAE, n of subjects",[1],3
same,"Dyspnoea, % of subjects",[1],(9.1) %
same,"Dyspnoea, n of subjects",[1],2
same,"Ecchymosis, n of subjects",[1],0
same,"Epistaxis, % of subjects",[1],(18.2) %
same,"Epistaxis, n of subjects",[1],4
same,"Fatigue, % of subjects",[1],(36.4) %
same,"Fatigue, n of subjects",[1],8
same,"Gingival bleeding, % of subjects",[1],(4.5) %
same,"Gingival bleeding, n of subjects",[1],1
same,"Headache, % of subjects",[1],(18.2) %
same,"Headache, n of subjects",[1],4
same,"Insomnia, % of subjects",[1],(4.5) %
same,"Insomnia, n of subjects",[1],1
same,"Migraine, n of subjects",[1],0
same,"Mouth haemorrhage, n of subjects",[1],0
same,"Nausea, n of subjects",[1],0
same,"Pain in extremity, % of subjects",[1],(9.1) %
same,"Pain in extremity, n of subjects",[1],2
same,"Petechiae, % of subjects",[1],(13.6) %
same,"Petechiae, n of subjects",[1],3
same,"Platelet count increased, % of subjects",[1],(9.1) %
same,"Platelet count increased, n of subjects",[1],2
same,"Serious TEAE Cerebrovascular accident, n (%) of subjects",[1],0 n (%)
same,"Serious TEAE Chest pain, n (%) of subjects",[1],0 n (%)
same,"Serious TEAE Diarrhoea, n (%) of subjects",[1],0 n (%)
same,"Serious TEAE Haemorrhage intracranial, n (%) of subjects",[1],0 n (%)
same,"Serious TEAE Lethargy, n (%) of subjects",[1],0 n (%)
same,"Serious TEAE Mitral valve incompetence, n (%) of subjects",[1],0 n (%)
same,"Serious TEAE Myocardial infarction, n (%) of subjects",[1],0 n (%)
same,"Serious TEAE Nausea, n (%) of subjects",[1],0 n (%)
same,"Serious TEAE Pelvic venous thrombosis, n (%) of subjects",[1],0 n (%)
same,"Serious TEAE Platelet count decreased, n (%) of subjects",[1],0 n (%)
same,"Serious TEAE Pneumonia, n (%) of subjects",[1],0 n (%)
same,"Serious TEAE Pyrexia, n (%) of subjects",[1],0 n (%)
same,"Serious TEAE Thrombocytopenia, n (%) of subjects",[1],1 (4.5) n (%)
same,"Serious TEAE Transient ischaemic attack, n (%) of subjects",[1],0 n (%)
same,"Serious TEAE Vomiting, n (%) of subjects",[1],0 n (%)
same,"Serious TEAE, % of subjects",[1],(4.5) %
same,"Serious TEAE, SOC Blood and lymphatic system disorders, n (%) of subjects",[1],1 (4.5) n (%)
same,"Serious TEAE, SOC Cardiac disorders, n (%) of subjects",[1],0 n (%)
same,"Serious TEAE, SOC Gastrointestinal disorders, n (%) of subjects",[1],0 n (%)
same,"Serious TEAE, SOC General disorders and administration site conditions, n (%) of subjects",[1],0 n (%)
same,"Serious TEAE, SOC Infections and infestations, n (%) of subjects",[1],0 n (%)
same,"Serious TEAE, SOC Investigations, n (%) of subjects",[1],0 n (%)
same,"Serious TEAE, SOC Nervous system disorders, n (%) of subjects",[1],0 n (%)
same,"Serious TEAE, SOC Vascular disorders, n (%) of subjects",[1],0 n (%)

# — US20110166112A1, “METHOD FOR STIMULATING PLATELET PRODUCTION” (Eisai, Inc., priority 2009, published 2011)
